The experiment concerns the target Poly [ADP-ribose] polymerase 1 (Homo sapiens, UniProt P09874). As to the kind of experiment: Inhibitory concentration against purified recombinant human Poly (ADP-ribose) polymerase 1.

For orientation: IC50 means the point on the concentration scale where inhibition reaches its midpoint.

Each structure is given as a SMILES string.

Chain of Poly [ADP-ribose] polymerase 1 (P09874 whole entry): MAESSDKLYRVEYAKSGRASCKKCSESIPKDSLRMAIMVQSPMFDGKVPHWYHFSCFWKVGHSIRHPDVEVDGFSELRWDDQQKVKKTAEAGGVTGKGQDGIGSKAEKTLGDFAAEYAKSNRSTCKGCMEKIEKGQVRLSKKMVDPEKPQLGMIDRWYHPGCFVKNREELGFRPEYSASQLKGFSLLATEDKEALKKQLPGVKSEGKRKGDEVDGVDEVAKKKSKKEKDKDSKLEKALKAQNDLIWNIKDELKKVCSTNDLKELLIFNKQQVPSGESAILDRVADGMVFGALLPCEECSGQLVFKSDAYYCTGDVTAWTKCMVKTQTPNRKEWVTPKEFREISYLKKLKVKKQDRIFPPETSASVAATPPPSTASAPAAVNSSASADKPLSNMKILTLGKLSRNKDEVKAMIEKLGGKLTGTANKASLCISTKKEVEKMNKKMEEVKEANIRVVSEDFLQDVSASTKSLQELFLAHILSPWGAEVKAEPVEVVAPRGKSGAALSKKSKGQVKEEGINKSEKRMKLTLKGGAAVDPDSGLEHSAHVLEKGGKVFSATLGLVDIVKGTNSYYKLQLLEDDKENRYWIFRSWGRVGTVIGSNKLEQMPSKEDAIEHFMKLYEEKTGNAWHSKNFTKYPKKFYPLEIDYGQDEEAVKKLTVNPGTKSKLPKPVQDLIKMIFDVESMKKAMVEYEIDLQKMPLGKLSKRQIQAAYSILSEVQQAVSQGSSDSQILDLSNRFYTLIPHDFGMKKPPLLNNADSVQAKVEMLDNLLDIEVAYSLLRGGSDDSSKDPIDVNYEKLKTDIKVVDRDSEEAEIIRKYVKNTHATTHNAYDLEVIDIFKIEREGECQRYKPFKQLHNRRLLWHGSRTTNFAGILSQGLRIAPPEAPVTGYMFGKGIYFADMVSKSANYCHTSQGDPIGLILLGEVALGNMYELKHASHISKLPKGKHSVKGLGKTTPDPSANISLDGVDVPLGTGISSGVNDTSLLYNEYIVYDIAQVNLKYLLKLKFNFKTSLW

With `O=C(O)c1ccc2c(c1)[nH]c(=O)c1ccccc12`, the IC50 amounted to 57 nM. Then `Nc1cc2[nH]c(=O)c3ccccc3c2cc1N`, with 180 nM; and `Cc1cccc2c(=O)[nH]c3cc(C(F)(F)F)c([N+](=O)[O-])cc3c12`, with 136 nM.

Regarding `O=c1[nH]c2ccccc2c2ccccc12`, the IC50 came to 520 nM. The same measure for `O=c1[nH]c2ccc([N+](=O)[O-])cc2c2ccccc12`: 156 nM; for `O=S(=O)(O)c1ccc2c(c1)nc(O)c1cc(S(=O)(=O)O)ccc12`: greater than 100000 nM. Then `O=C(O)c1cccc2c(O)nc3ccccc3c12`, with greater than 60000 nM; and `O=c1[nH]c2cc(S(=O)(=O)O)ccc2c2ccc(F)cc12`, with 10 nM; and `Nc1ccc2[nH]c(=O)c3ccccc3c2c1`, with 180 nM.

Turning to `Cc1cccc2c(O)nc3cc(F)ccc3c12`, the IC50 is 92 nM.

The record behind these values is ChEMBL document CHEMBL1134117, “Synthesis of substituted 5[H]phenanthridin-6-ones as potent poly(ADP-ribose)polymerase-1 (PARP1) inhibitors” (Bioorg Med Chem Lett, 2001).
